From patent publication US4261892A, “2,4,6-Tris-(substituted-amino)-s-triazines” (American Cyanamid Company, priority 1979, dated 1981)
Read-outs that look alike come from different tables or passages of the source.

Tests used:
[1] = tested on: Adjuvant Arthritis In Rats; assay: Adjuvant-induced arthritis in rats (chronic inflammation accompanied by joint destruction); type: in vivo, Royal Hart, Wistar strain rats; conditions: for inhibition in vivo at 0.25 mg/kg / inhibition in vivo at 0.5 mg/kg / inhibition in vivo at 2 mg/kg / inhibition in vivo at 1 mg/kg / inhibition in vivo at 18.8 mg/kg / inhibition in vivo at 37.5 mg/kg / inhibition in vivo at 75 mg/kg / inhibition in vivo at 150 mg/kg: Rattus norvegicus
Method: Groups of three Royal Hart, Wistar strain rats weighing 200±10 grams each were injected intradermally in the right hind paw with Freund's adjuvant (dried human tubercle bacilli in a mineral oil vehicle) at a dose of 2 mg./kg. of body weight. […] On the 14th and 21st day post challenge the diameter of the injected paw (primary lesion) was measured by micrometer caliper. The volume of inflamed paws were estimated from these measurements and the results are expressed as percent inhibition of swelling as compared to controls. At the same time, the other inflamed sites, such as ears, paws and tail (secondary lesions) were observed and each rat was graded as to degree of inflammation and swelling present. The grading is based on a scale of 0 to 24 where 0 represents a complete absence of induced arthritic nodules and 24 represents the maximum degree of inflammation. The mean grade for each treated group is calculated and the effects of each compound are expressed as percent inhibition of the control grade.

[2] = tested on: arthritic paw swelling / joint and bone deterioration; conditions: literature (Wong et al., Bobalick et al.); cited from earlier work
[3] = oral 0.25 mg./kg. once daily days 0-13, Day 14
[4] = oral 0.25 mg./kg. once daily days 0-13, Day 21
[5] = oral 0.5 mg./kg. once daily days 0-13, Day 14
[6] = oral 0.5 mg./kg. once daily days 0-13, Day 21
[7] = oral 1 mg./kg. once daily days 0-13, Day 14
[8] = oral 1 mg./kg. once daily days 0-13, Day 21
[9] = oral 2 mg./kg. once daily days 0-13, Day 14
[10] = oral 2 mg./kg. once daily days 0-13, Day 21
[11] = oral 18.8 mg./kg. once daily days 0-13, Day 14
[12] = oral 18.8 mg./kg. once daily days 0-13, Day 21
[13] = oral 37.5 mg./kg. once daily days 0-13, Day 14
[14] = oral 37.5 mg./kg. once daily days 0-13, Day 21
[15] = oral 75 mg./kg. once daily days 0-13, Day 14
[16] = oral 75 mg./kg. once daily days 0-13, Day 21
[17] = oral 150 mg./kg. once daily days 0-13, Day 14
[18] = oral 150 mg./kg. once daily days 0-13, Day 21

COc1ccc2c(c1)c(CC(=O)O)c(C)n2C(=O)c1ccc(Cl)cc1 [Indomethacin] gave an inhibition in vivo at 0.25 mg/kg ([1]; 336 h, oral 0.25 mg./kg. once daily days 0-13, Day 14, read-out: % Inhibition of Swelling (primary lesion) Day 14) of 30%, an inhibition in vivo at 0.5 mg/kg ([1]; 336 h, oral 0.5 mg./kg. once daily days 0-13, Day 14, read-out: % Inhibition of Swelling (primary lesion) Day 14) of 40% and an inhibition in vivo at 2 mg/kg ([1]; 336 h, oral 2 mg./kg. once daily days 0-13, Day 14, read-out: % Inhibition of Swelling (primary lesion) Day 14) of 51%. It also gave an inhibition in vivo at 0.25 mg/kg ([1]; 504 h, oral 0.25 mg./kg. once daily days 0-13, Day 21, read-out: % Inhibition of Swelling (primary lesion) Day 21) of 4%, an inhibition in vivo at 0.5 mg/kg ([1]; 504 h, oral 0.5 mg./kg. once daily days 0-13, Day 21, read-out: % Inhibition of Swelling (primary lesion) Day 21) of 20% and an inhibition in vivo at 1 mg/kg ([1]; 504 h, oral 1 mg./kg. once daily days 0-13, Day 21, read-out: % Inhibition of Swelling (primary lesion) Day 21) of 19%. For the same molecule, the inhibition in vivo at 2 mg/kg ([1]; 504 h, oral 2 mg./kg. once daily days 0-13, Day 21, read-out: % Inhibition of Swelling (primary lesion) Day 21) was 24%, the inhibition in vivo at 1 mg/kg ([1]; po, 336 h, read-out: % Inhibition of Swelling (primary lesion) Day 14) was 46% and the “% Inhibition of Control Grade (secondary lesion) Day 14” value [1, 3] was 22%. For the same molecule, the “Mean Weight Gain (grams) Day 14” value [1, 3] was 51 grams, the “% Inhibition of Control Grade (secondary lesion) Day 21” value [1, 4] was 4% and the “Mean Weight Gain (grams) Day 21” value [1, 4] was 57 grams. The “Dead/Treated at 21 Days” value ([1]; oral 0.25 mg./kg. once daily days 0-13) was 0/9, the “% Inhibition of Control Grade (secondary lesion) Day 14” value [1, 5] was 25% and the “Mean Weight Gain (grams) Day 14” value [1, 5] was 53 grams. The “% Inhibition of Control Grade (secondary lesion) Day 21” value [1, 6] was 17%, the “Mean Weight Gain (grams) Day 21” value [1, 6] was 51 grams and the “Dead/Treated at 21 Days” value ([1]; oral 0.5 mg./kg. once daily days 0-13) was 5/54. The “% Inhibition of Control Grade (secondary lesion) Day 14” value [1, 7] was 34%, the “Mean Weight Gain (grams) Day 14” value [1, 7] was 63 grams and the “% Inhibition of Control Grade (secondary lesion) Day 21” value [1, 8] was 20%. The “Mean Weight Gain (grams) Day 21” value [1, 8] was 65 grams, the “Dead/Treated at 21 Days” value ([1]; oral 1 mg./kg. once daily days 0-13) was 9/54 and the “% Inhibition of Control Grade (secondary lesion) Day 14” value [1, 9] was 38%. For the same molecule, the “Mean Weight Gain (grams) Day 14” value [1, 9] was 68 grams, the “% Inhibition of Control Grade (secondary lesion) Day 21” value [1, 10] was 25% and the “Mean Weight Gain (grams) Day 21” value [1, 10] was 68 grams. For the same molecule, the “Dead/Treated at 21 Days” value ([1]; oral 2 mg./kg. once daily days 0-13) was 8/57, the arthritic paw swelling [2] was “inhibit arthritic paw swelling” and the “joint and bone deterioration” value [2] was “prevent joint and bone deterioration”.
Molecule CCCCC1C(=O)N(c2ccccc2)N(c2ccccc2)C1=O [Phenylbutazone] has an inhibition in vivo at 18.8 mg/kg ([1]; 336 h, oral 18.8 mg./kg. once daily days 0-13, Day 14, read-out: % Inhibition of Swelling (primary lesion) Day 14) of 31%, an inhibition in vivo at 37.5 mg/kg ([1]; 336 h, oral 37.5 mg./kg. once daily days 0-13, Day 14, read-out: % Inhibition of Swelling (primary lesion) Day 14) of 56% and an inhibition in vivo at 75 mg/kg ([1]; 336 h, oral 75 mg./kg. once daily days 0-13, Day 14, read-out: % Inhibition of Swelling (primary lesion) Day 14) of 62%. It also gave an inhibition in vivo at 150 mg/kg ([1]; 336 h, oral 150 mg./kg. once daily days 0-13, Day 14, read-out: % Inhibition of Swelling (primary lesion) Day 14) of 75%, an inhibition in vivo at 18.8 mg/kg ([1]; 504 h, oral 18.8 mg./kg. once daily days 0-13, Day 21, read-out: % Inhibition of Swelling (primary lesion) Day 21) of 7% and an inhibition in vivo at 37.5 mg/kg ([1]; 504 h, oral 37.5 mg./kg. once daily days 0-13, Day 21, read-out: % Inhibition of Swelling (primary lesion) Day 21) of 14%. The inhibition in vivo at 75 mg/kg ([1]; 504 h, oral 75 mg./kg. once daily days 0-13, Day 21, read-out: % Inhibition of Swelling (primary lesion) Day 21) was 28%, the inhibition in vivo at 150 mg/kg ([1]; 504 h, oral 150 mg./kg. once daily days 0-13, Day 21, read-out: % Inhibition of Swelling (primary lesion) Day 21) was 44% and the “% Inhibition of Control Grade (secondary lesion) Day 14” value [1, 11] was 4%. For the same molecule, the “Mean Weight Gain (grams) Day 14” value [1, 11] was 50 grams, the “% Inhibition of Control Grade (secondary lesion) Day 21” value [1, 12] was 8% and the “Mean Weight Gain (grams) Day 21” value [1, 12] was 45 grams. For the same molecule, the “Dead/Treated at 21 Days” value ([1]; oral 18.8 mg./kg. once daily days 0-13) was 2/21, the “% Inhibition of Control Grade (secondary lesion) Day 14” value [1, 13] was 18% and the “Mean Weight Gain (grams) Day 14” value [1, 13] was 53 grams. For the same molecule, the “% Inhibition of Control Grade (secondary lesion) Day 21” value [1, 14] was 13%, the “Mean Weight Gain (grams) Day 21” value [1, 14] was 53 grams and the “Dead/Treated at 21 Days” value ([1]; oral 37.5 mg./kg. once daily days 0-13) was 5/39. The “% Inhibition of Control Grade (secondary lesion) Day 14” value [1, 15] was 27%, the “Mean Weight Gain (grams) Day 14” value [1, 15] was 51 grams and the “% Inhibition of Control Grade (secondary lesion) Day 21” value [1, 16] was 15%. The “Mean Weight Gain (grams) Day 21” value [1, 16] was 50 grams, the “Dead/Treated at 21 Days” value ([1]; oral 75 mg./kg. once daily days 0-13) was 2/39 and the “% Inhibition of Control Grade (secondary lesion) Day 14” value [1, 17] was 54%. The “Mean Weight Gain (grams) Day 14” value [1, 17] was 40 grams, the “% Inhibition of Control Grade (secondary lesion) Day 21” value [1, 18] was 31% and the “Mean Weight Gain (grams) Day 21” value [1, 18] was 50 grams. The “Dead/Treated at 21 Days” value ([1]; oral 150 mg./kg. once daily days 0-13) was 2/27.
